Source: PubChem BioAssay (NCI)
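In this assay, cells in 96-well plates receive the compound at five concentrations for 48 hours. Endpoints are linearly interpolated between the surrounding concentrations. GI50 marks 50% less growth. At the TGI there is no net growth.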

How the values were obtained:
Experiment in all cases: NCI anticancer screen, dose series, 48 h
[1] = system: HOP-92 NSCLC
[2] = system: OVCAR-4 ovarian
[3] = system: SK-MEL-28 melanoma
[4] = system: UACC-257 melanoma
[5] = system: RPMI-8226 leukemia
[6] = system: MOLT-4 leukemia
[7] = system: MDA-MB-231 breast
[8] = system: TK-10 renal

Row | Compound | GI50 [1] | TGI [1] | GI50 [2] | TGI [2] | GI50 [3] | TGI [3] | GI50 [4] | TGI [4] | GI50 [5] | TGI [5] | GI50 [6] | TGI [6] | GI50 [7] | TGI [7] | GI50 [8] | TGI [8]
1 | CC(C)[C@H](CO)Nc1nc(Nc2ccc(C(=O)NCCNS(=O)(=O)c3cccc4c(N(C)C)cccc34)c(Cl)c2)c2ncn(C(C)C)c2n1 | 2 µM | > 100 µM | 7.71 µM | > 100 µM | 2.9 µM | > 100 µM | 2.66 µM | > 100 µM | 2.14 µM | 5.63 µM | 3.51 µM | > 100 µM | 1.58 µM | 9.16 µM | 7.62 µM | > 100 µM
2 | Ic1ccccc1-c1ccccc1 | 13.2 µM | > 100 µM | > 100 µM | > 100 µM | > 100 µM | > 100 µM | > 100 µM | > 100 µM | 62.7 µM | > 100 µM | 26.8 µM | > 100 µM | > 100 µM | > 100 µM | > 100 µM | > 100 µM
3 | C/C(=N/Nc1nc2ccccc2n1C)c1ccccn1 | 0.261 µM | 20 µM | 0.0292 µM | 11.8 µM | 0.256 µM | 29.1 µM | 0.0377 µM | 0.489 µM | 0.0398 µM | 15.3 µM | 0.0226 µM | > 39.1 µM | 0.0561 µM | 15.3 µM | 0.44 µM | 32.6 µM
4 | NC(N)=N/N=C\c1cccc(OCc2ccccc2)c1 | 2.05 µM | 7.47 µM | 5.93 µM | 27 µM | 1.66 µM | 3.41 µM | 1.82 µM | 4.07 µM | 2.33 µM | 8.17 µM | 11.1 µM | 27.8 µM | 2.37 µM | 6.11 µM | 12.6 µM | 39.1 µM
5 | COc1cc2cc(Oc3ccc(NC(=O)Nc4cccc(C(F)(F)F)c4)cc3)c(C)nc2cc1OC | 1.26 µM | 3.96 µM | 2.3 µM | 9.7 µM | 1.97 µM | 8.37 µM | 1.09 µM | 3.66 µM | 1.05 µM | 2.96 µM | 1.55 µM | 6.87 µM | 1.13 µM | 4.15 µM | 2.26 µM | 9.93 µM
6 | COc1ccc(/C=C\c2cc(OC)c(OC)c(OC)c2)cc1OC(=O)c1cccc(Cn2cc(CCOC(=O)[C@H](N)Cc3cn(C)c4ccccc34)nn2)c1 | 0.206 µM | > 88.2 µM | 0.208 µM | > 85.4 µM | 2.69 µM | 36.1 µM | 11.4 µM | 47.6 µM | < 0.01 µM | 2.23 µM | < 0.01 µM | 18.8 µM | < 0.01 µM | > 51.9 µM | 25 µM | > 100 µM
7 | O=C(Nc1cc(Cl)cc(Cl)c1)c1ccc(NC2=C(Cl)C(=O)N(Cc3ccc(Cl)cc3Cl)C2=O)cc1 | 9.32 µM | 27.5 µM | 21.8 µM | > 100 µM | 21.4 µM | 75.8 µM | 24.8 µM | 53.1 µM | 2.53 µM | 10.9 µM | 0.249 µM | 1.53 µM | 19.6 µM | 41.8 µM | 0.768 µM | 26 µM
